# Source: patent EP0541617B1, “1,4-DISUBSTITUTED PIPERAZINES” (NOVO NORDISK A/S, priority 1990, dated 1992)
# pIC50: −log10 of the molar value.
# How the values were obtained:
# DA-uptake complex = biological target: T1, DA-uptake complex (Rattus norvegicus, UniProt P23977); experiment: Test 1: inhibition of 3H-GBR 12935 binding in a striatal membrane preparation
# T1 construct: in a striatal membrane preparation; from tissue; host or cells: striatum (membrane preparation)
# Male NMRI mice = experiment: Test 2: increase of motility of mice after intravenous administration (photocell crossings); assay type: in vivo; conditions: ED50, i.v., lowest ED50 value determined at a 20 min interval during the 360 min test period
# Protocol: The compounds were also tested for their ability to increase the motility of mice following intravenous administration using the method outlined below.
# Male NMRI mice are used (20 ± 2 g). The animals are housed 20-30 per cage under constant temperature (20 ± 1°C) and relative humidity (40-60%). The animals are brought into the experimental room in the afternoon, the day before they undergo testing.
# The experimentally-naive, uninjected mice are acclimatized by being placed in a plexiglass box (WLH: 20 x 20 x 38 cm), four per box, for a 120 min period, and then injected with the test compound whereafter they are replaced in the plexiglass box.
# The plexiglass box is equipped with a frame of photocells (spaced equidistantly) which are situated so as to detect locomotor behaviour of the animals (1 cm above the floor). The photocell chamber is housed in an sound-insulated, dimly-lit, ventilated chest. As a measure of exploratory behaviour, the number of photocell crossings in a 360 min period is detected using a minicomputer. Testing is made between 7:00 and 17.00 h.
# Drugs are injected i.v. simultaneously with start of testing; N = 4/dose; 4-5 doses of test drug is given in a volume of 10 ml/kg. […]
# T1 sequence (P23977 whole entry, one chain of several): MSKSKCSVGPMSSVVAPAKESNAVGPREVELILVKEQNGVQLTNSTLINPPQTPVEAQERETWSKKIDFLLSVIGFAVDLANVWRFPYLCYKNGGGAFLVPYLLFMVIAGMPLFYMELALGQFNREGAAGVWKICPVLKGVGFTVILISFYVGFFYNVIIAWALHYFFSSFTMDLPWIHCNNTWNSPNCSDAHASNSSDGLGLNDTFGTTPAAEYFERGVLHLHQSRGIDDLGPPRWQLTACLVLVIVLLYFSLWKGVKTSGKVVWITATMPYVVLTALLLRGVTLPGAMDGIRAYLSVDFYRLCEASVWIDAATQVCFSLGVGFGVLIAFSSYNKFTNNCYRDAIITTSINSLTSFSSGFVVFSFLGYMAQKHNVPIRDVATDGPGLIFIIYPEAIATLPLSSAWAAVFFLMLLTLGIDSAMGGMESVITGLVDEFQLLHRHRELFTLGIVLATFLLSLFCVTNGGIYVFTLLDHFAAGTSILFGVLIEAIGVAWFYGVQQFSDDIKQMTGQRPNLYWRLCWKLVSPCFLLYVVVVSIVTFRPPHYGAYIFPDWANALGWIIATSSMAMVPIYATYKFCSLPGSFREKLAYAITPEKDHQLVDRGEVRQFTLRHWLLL
SMILES,pIC50 (DA-uptake complex),Test 2 (Male NMRI mice) [mg/kg]
"N#CCCCCN1CCN(CCOC(c2ccc(F)cc2)c2ccc(F)cc2)CC1 [Example 4A, 1-[2-(bis-(4-fluorophenyl)-methoxy)-ethyl]-4-(4-cyanobutyl)-piperazine]",7.74,2.4
"Fc1ccc(C(OCCN2CCN(CCCc3ccccc3)CC2)c2ccc(F)cc2)cc1 [GBR 12909, 1-(2-(bis(4-fluorophenyl)-methoxy)-ethyl)-4-(3-phenyl-propyl) piperazine, reference compound]",,2.3
